Test results from patent publication US11154569B2, “Ruthenium μ-nitrido complexes and their use as calcium uptake inhibitors” (CORNELL UNIVERSITY, priority 2018, dated 2021).

Experiments:
[1] = biological target: T1, mitochondrial calcium uniporter (MCU) (Homo sapiens, UniProt Q8NE86); assay: Cytoplasmic and mitochondrial Ca2+ dynamics in intact HeLa cells after histamine; format: cell-based; parameters: 30 min) and Rhod-2 AM; endogenous in cells; host or cells: HeLa (intact; some experiments with transfected Ca2+ sensors R-GECO1 and GCamP6-mt, MCU itself not transfected); conditions: intact HeLa cells, 50 μM for 30 minutes, histamine 100 μM; Rhod-2 AM and GCamP6-mt
T1 sequence (Q8NE86 51-351): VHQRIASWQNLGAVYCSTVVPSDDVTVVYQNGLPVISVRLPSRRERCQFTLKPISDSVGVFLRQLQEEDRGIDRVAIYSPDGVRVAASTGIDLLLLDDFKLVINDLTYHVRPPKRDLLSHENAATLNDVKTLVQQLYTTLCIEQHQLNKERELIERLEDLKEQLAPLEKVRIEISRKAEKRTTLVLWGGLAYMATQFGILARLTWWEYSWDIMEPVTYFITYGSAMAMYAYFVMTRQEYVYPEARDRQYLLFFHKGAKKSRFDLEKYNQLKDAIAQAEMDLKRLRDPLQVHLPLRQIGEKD
T1 sequence (Q9H4I9 48-107 partner limits assumed): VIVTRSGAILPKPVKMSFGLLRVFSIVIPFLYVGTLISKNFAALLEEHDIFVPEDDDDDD
Method: HeLa cells were loaded with Fluo-4-AM (5 μM; 30 min) and Rhod-2 AM (2 μM; 50 min) in extracellular medium as previously described (F. Perocchi et al, Nature 2010, 467, 291-296). Coverslips were mounted in an open perfusion microincubator at 37° C. and imaged. After 1 minute of baseline recording, histamine (100 μM) was added, and confocal images were recorded every 3 seconds at 488 and 561 nm excitation using a 40× oil objective. Images were analyzed and quantified by using ImageJ (NIH).
HeLa cells were transiently transfected with genetically encoded cytosolic and mitochondrial targeted Ca^2+ sensors R-GECO1 and GCamP6-mt plasmids. After 48 hours, the transfected cells were treated with MCU inhibitors (C1, C-2, and C-3; 50 μM). After 1 minute of baseline recording, histamine (100 μM) was added, and the change of R-GECO1 and GCamP6-mt fluorescence was measured with 488-nm and 561-nm excitation on a confocal microscope equipped with a 40× oil objective. Images were analyzed and quantified by using ImageJ (NIH).
Encouraged by the high cell permeability and mitochondrial selectivity of C-2, the capability of this complex to inhibit MCU-mediated mCa^2+ uptake in intact, non-permeabilized cells was investigated Briefly, HeLa cells were loaded with the cytosolic calcium concentration ([Ca^2+]) indicator Fluo-4 AM and the mitochondrial calcium concentration ([…]) indicator Rhod-2 AM in the presence or absence of C-1, C-2, and C-3 (50 μM). Cells were stimulated with the GPCR agonist histamine (100 μM) to rapidly elevate cCa^2+ levels to induce mCa^2+ uptake (Z. Dong et al., Mol. Cell 2017, 65, 1014-1028).
FIGS. 3A and 3B are graphs showing results of cytosolic ([Ca^2+]e, Fluo-4 AM) and mitochondrial ([Ca^2+]m, Rhod-2 AM) calcium transients in HeLa cells after treatment with histamine (100 μM) that were pretreated with or without C-1, C-2, or C-3 (50 μM) for 30 minutes. FIGS. 3C and 3D are graphs showing results of cytosolic ([Ca^2+]e, R-GECO) and mitochondrial ([Ca^2+]m, GCamP6-mt)) calcium transients in HeLa cells after treatment with histamine (100 μM) that were pretreated with or without C-1, C-2, or C-3 (50 μM) for 30 minutes. HeLa cells were co-transfected with R-GECO1 and GCamP6-mt. 48 hours post-transfection. Data are represented as mean±SEM. *p<0.05. n=3-6.

[2] = biological target: T1, mitochondrial calcium uniporter (MCU); assay: MCU-mediated Ca2+ uptake and ΔΨm in permeabilized HEK293T cells; format: cell-based; parameters: endogenous in cells; host or cells: HEK293T (digitonin-permeabilized); conditions: 5 μM compound, 20 μM Ca2+ bolus
Method: An equal number of IHEK293T (6×10^6 cells) were washed in Ca^2+ free PBS, pH 7.4, resuspended and permeabilized with 40 μg/ml digitonin in 1.5 ml of intracellular medium (ICM) composed of 120 mM KCl, 10 mM NaCl, 1 mM K—H2PO4, 20 mM HE PES-Tris, pH 7.2 and 2 μM thapsigargin to block the SERCA pump. All measurements were performed in the presence of 2 mM succinate. The permeabilized cells were loaded with JC-1 (800 nM) and Fura2-FF (0.5 μM), respectively. Fluorescence was monitored in a multi-wavelength excitation dual-wavelength emission fluorimeter. [Ca^2+]out is represented as the excitation ratio (340 nm/380 nm) of Fura2-FF/FA fluorescence and ΔΨm as the ratio of the fluorescence of J-aggregate (570 nm excitation/595 nm emission) and monomer (490 nm excitation/535 nm emission) forms of JC-1. A series of extra-mitochondrial Ca^2+ bolus (20 μM) was added and mitochondrial uncoupler, CCCP (2 jμM), were added at the indicated time points. All of the experiments were performed at 37° C. with constant stirring.
With the new nitrido-bridged ruthenium compounds C-2 and C-3 prepared, MCU-inhibitory properties of these compounds were evaluated and their activities compared to C-1, the oxo-bridged Ru360 analogue of the conventional art (S. R. Nathan et al., Inorg. Chem. 2017, 56, 3123-3126 and S. R. Nathan et al., J. Vis. Exp. 2017, 56527). The cytotoxicity of the complexes in HEK293 cells was first measured using the colorimetric thiazolyl blue tetrazolium bromide (MTT) assay, as well known in the art. […] To measure the effect of these compounds on MCU activity, permeabilized HEK293T cells were treated with commercially available Ru360, C-1, C-2, or C-3 (5 jμM) 200 seconds prior to the delivery of a 20 μM bolus of Ca^2+ in the presence of 2 mM succinate as an energy source and the sarco/endoplasmic reticulum Ca^2+-ATPase (SERCA) pump blocker thapsigargin to prevent ER Ca^2+ uptake (S. Shanmughapriya et al., Sci. Signal. 2015, 8, ra23).
FIGS. 2A-2C are graphs showing changes in mitochondrial membrane potential (ΔΨm, JC-1, top panel) and extramitochondrial Ca^2+([Ca^2+]out) clearance (Fura-2 FF, bottom panel) in digitonin permeabilized HEK293T cells in response to 20 μM of Ca^2+ after treatment with 5 μM of C-1 (FIG. 2A), C-2 (FIG. 2B), and C-3 (FIG. 2C). The transient drop in ΔΨm in control cells upon Ca^2+ addition indicates accumulation of Ca^2+ in the mitochondrial matrix. FIG. 2D is a graph quantifying the rate of [Ca^2+] uptake as a function of decrease in [Ca^2+]out after a […] Ca^2+ pulse. […] Additionally, ΔΨm was monitored using 5,5′,6,6′-tetrachloro-1,1′,3,3′-tetraethylbenzimidazolylcarbocyanine iodide (JC-1) dye (M. Reen et al., Biochemistry 1991, 30, 4480-4486).
Having identified (C-2 as a cell-permeable MCU inhibitor, a dose-response analysis was performed to determine the potency of C-2 towards mCa^2+ uptake inhibition of C-2 in a permeabilized cell system. Permeabilized IHEK293T cells were treated with C-2 (1 nM to 1 μM). A 20 μM Ca^2+ bolus was added after baseline recording, and the extra-mitochondrial calcium cleared was used as an indicator for MCU-mediated mCa^2+ uptake using Fura-2FF. The results are shown in FIGS. 4A-4C. FIG. 4A includes representative traces of [Ca^2+]out clearance in permeabilized HEK293T cells challenged with a range of C-2 concentrations (1, 2, 3, 5, and 10 nM). FIG. 4B is a graph comparing MCU-inhibitory effect by Ru360 (30 nM) and C-2 (2 and 10 nM) at lower concentrations. FIG. 4C is a graph showing calculation of dose-dependent IC50 inhibition by C-2 and Ru360. Data represent mean±SEM (n=3-6), n.s.=not significant. […] Furthermore, complete inhibition of mCa^2+ uptake was observed when cells were dosed with 10 nM C-2 while 500 nM of Ru360 was required for the same response (FIGS. 4A and 4B).

transient ΔΨm loss (JC-1) ([2]; permeabilized HEK293T cells): no transient A m loss
Substance: [Ru2(μ-O)(NH3)8(H2O)2]^+5 [C-1, reference compound]
inhibition of MCU-mediated mCa2+ uptake in intact cells [1]: did not show appreciable inhibition of mCa^2+ uptake
MCU mediated mCa2+ uptake ([2]; digitonin permeabilized HEK293T cells): significant reduction in MCU mediated mCa^2+ uptake
